The results in this text go back to US12281299B2, “Control of nitrogen fixation in rhizobia that associate with cereals” (Massachusetts Institute of Technology, priority 2019, dated 2025).

Structures can show the parent of a compound that is named as a salt.

The first series deals with P. protegens Pf-5. Description: Genetic part characterization for P. protegens (promoters, RBSs, terminators, inducible systems; fluorescence reporter, flow cytometry). The class given is cell-based, Pseudomonas protegens. The following applies: P. protegens Pf-5, pRO1600 plasmid. From the text: Construction and characterization genetic parts for P. protegens. Genetic part libraries were built on a pRO1600-ori plasmid pMR-2 using Gibson assembly (New England Biolabs, Cat # E2611). The fluorescence proteins, GFPmut3b and mRFP1 were used as reporters. The Anderson promoter library on the BioBricks Registry were utilized for the characterization of constitutive promoters (FIGS. 11A-11C). The following combinations of cognate regulators and inducible promoters were characterized. IPTG inducible LacI-Ptac, DAPG inducible PhlF-PPhl, aTc inducible TetR-PTet, 3OC6HSL inducible LuxR-PLux, arabinose inducible AraC-PBAD, cuminic acid inducible CymR-PCym, and naringenin inducible FdeR-PFde were optimized (FIGS. 15A-15C). […] RBS library for GFP was designed using the RBS library calculator at the highest-resolution mode, and the 3′ end of the 16S rRNA sequences were adjusted according to the species (3′-ACCTCCTTA-5′ for P. protegens Pf-5). Terminators for T7 RNAP were characterized by placing a terminator between two fluorescence reporters expressed from a single T7 wild-type promoter located upstream of the first fluorescence protein GFP. The expression of the two fluorescence proteins is enabled by an IPTG-inducible T7 RNAP expression system of the controller strain MR7 (FIGS. 13A-13B). All genetic parts for P. protegens Pf-5 were characterized as follows.
With `CCCC(=O)CC(=O)N[C@H]1CCOC1=O` [3OC6HSL, N-(3-Oxohexanoyl)-L-homoserine lactone, reference compound], the “function of inducible system” value is “functional”.

Turning to `Cc1c2c(c(O)c3c(O)cccc13)C(=O)[C@]1(O)C(=O)C(C(N)=O)=C(O)[C@@H](N(C)C)[C@@H]1C2` [aTc, Anhydrotetracycline hydrochloride, reference compound], the “function of inducible system” value was “functional”.

Turning to `CC(C)c1ccc(C(=O)O)cc1` [cuminic acid, Cuminic acid, reference compound], the “function of inducible system” value is reported as “functional”.

Take `O=C1C[C@@H](c2ccc(O)cc2)Oc2cc(O)cc(O)c21` [naringenin, Naringenin, reference compound]: the “function of inducible system” value was “functional”.

Staying with this series, now noted: synthetic RBS strength in P. protegens Pf-5; plasmid pMR-65, arabinose-inducible system, 7 μM arabinose induction.
Consider “R135132 (DNA CTAGCGAAGGTCCAACGTTTTTCTAAGCAAGGAGGTCATATG; chemistry not fully specified)”, for which the “Strength (GFP, au)” value worked out at 21590 au.

Take “R135133 (DNA CTAGCGAAGGTCCAACGTTTTTCTAAGCCAGGAGGTCATATG; chemistry not fully specified)”: the “Strength (GFP, au)” value is 19690 au.

With “R135135 (DNA CTAGCGAAGCTCCAACGTTTTTCTAAGCAAGGAGGTCATATG; chemistry not fully specified)”, the “Strength (GFP, au)” value came out at 17990 au.

For the compound “RBSp1 (DNA CTAGCGCAGGTCCAACGTTTTTCTAAGCAAGGAGGTCATATG; expressed or natural sequence)”, the “Strength (GFP, au)” value was determined as 25090 au.

For the compound “RBSp4 (DNA CTAGCGCAGGTCCAACGTTTTTCTAAGCCAGGAGGTCATATG; expressed or natural sequence)”, the “Strength (GFP, au)” value is on record as 19490 au.

As for “RBSp6 (DNA GAATTCTACACTAACGGACAGGAGGGTCCGATG; expressed or natural sequence)”, the “Strength (GFP, au)” value is on record as 14490 au.

Take “RBSp7 (DNA GAATTCTAAACTAACGGACAGGAGGGTCCGATG; expressed or natural sequence)”: the “Strength (GFP, au)” value turned out to be 13390 au.

Consider “RBSp8 (DNA GAATTCTAAGCTAACGGACAGGAGGGTCCGATG; expressed or natural sequence)”, for which the “Strength (GFP, au)” value is listed as 12790 au.

On to “RBSp9 (DNA GAATTCTTAACTAACGGACAGGAGGGTCCGATG; expressed or natural sequence)”, for which the “Strength (GFP, au)” value worked out at 11490 au.

Turning to “RBSp10 (DNA GAATTCTACACTAACGGACAGGAGGGTCGGATG; expressed or natural sequence)”, the “Strength (GFP, au)” value is reported as 11090 au.

With “RBSp11 (DNA GAATTCTACGCTAACGGACAGGAGGGTCCGATG; expressed or natural sequence)”, the “Strength (GFP, au)” value was 10390 au.

Regarding “RBSp12 (DNA GAATTCTCAACTAACGGACAGGAGGGTCCGATG; expressed or natural sequence)”, the “Strength (GFP, au)” value was 9590 au.

As for “RBSp13 (DNA GAATTCTAAGCTAACGGACAGGAGGGTCGGATG; expressed or natural sequence)”, the “Strength (GFP, au)” value is listed as 8918 au.

For “RBSp14 (DNA GAATTCTCAGCTAACGGACAGGAGGGTCCGATG; expressed or natural sequence)”, the “Strength (GFP, au)” value worked out at 8766 au.

As for “RBSp15 (DNA GAATTCTCAACTAACGGACAGGAGGGTCCGATG; expressed or natural sequence)”, the “Strength (GFP, au)” value is given as 7596 au.

For the compound “RBSp16 (DNA GAATTCTACGCTAACGGACAGGAGGGTCGGATG; expressed or natural sequence)”, the “Strength (GFP, au)” value turned out to be 6055 au.

On to “RBSp17 (DNA GAATTCTCAACTAACGGACAGGAGATATACATATG; expressed or natural sequence)”, for which the “Strength (GFP, au)” value is listed as 5939 au.

For the compound “RBSp18 (DNA GAATTCTCAGCTAACGGACAGGAGGGTCGGATG; expressed or natural sequence)”, the “Strength (GFP, au)” value is 5915 au.

For the compound “RBSp19 (DNA GAATTCTAAACTAACGGACAGGAGGGTCGGATG; expressed or natural sequence)”, the “Strength (GFP, au)” value came out at 4867 au.

On to “RBSp20 (DNA GAATTCTCAGCTCACGGACAGGAGGGTCGGATG; expressed or natural sequence)”, for which the “Strength (GFP, au)” value is given as 4426 au.

As for “RBSp21 (DNA GAATTCTCAACTAACGGACAGGAGGGTCGGGATG; expressed or natural sequence)”, the “Strength (GFP, au)” value is listed as 4110 au.

For the compound “RBSp22 (DNA GAATTCTACACTCACGGACAGGAGGGTCGGATG; expressed or natural sequence)”, the “Strength (GFP, au)” value is 3977 au.

Turning to “RBSp23 (DNA GAATTCTAAGCTCACGGACAGGAGGGTCGGATG; expressed or natural sequence)”, the “Strength (GFP, au)” value was 3829 au.

“RBSp24 (DNA GAATTCTCAACTCACGGACAGGAGGGTCGGATG; expressed or natural sequence)”: the “Strength (GFP, au)” value was 3661 au.

For the compound “RBSp25 (DNA GAATTCTACACTAACGGACAGCAGGGTCGGATG; expressed or natural sequence)”, the “Strength (GFP, au)” value was 3542 au.

Regarding “RBSp27 (DNA GAATTCTCAGCTAACGGACAGCAGGGTCGGATG; expressed or natural sequence)”, the “Strength (GFP, au)” value was 1265 au.

Take “RBSp28 (DNA CTAGCGCAGGTCCAACCTTTTTCTAAGCAACTAGGTCATATG; expressed or natural sequence)”: the “Strength (GFP, au)” value is 389 au.

Take “RBSp29 (DNA CTAGCGAAGGTCCAACCTTTTTCTAAGCCAGTAGGTCATATG; expressed or natural sequence)”: the “Strength (GFP, au)” value was 377 au.

For the compound “RBSp30 (DNA GAATTCTACGCTCACGGACAGCAGGGTCGGATG; expressed or natural sequence)”, the “Strength (GFP, au)” value is on record as 221 au.

For the compound “RBSp31 (DNA GAATTCTCCGCTCACGGACAGGAGGGTCCGATG; expressed or natural sequence)”, the “Strength (GFP, au)” value was 23.3 au.

For the next series, the system named is R. sp. IRBG74. Description: Genetic part characterization for Rhizobia (promoters, RBSs, terminators, inducible systems; fluorescence reporter, flow cytometry). The class given is cell-based, Rhizobium sp. The following applies: synthetic RBS strength in R. sp. IRBG74; plasmid pMR-40, IPTG-inducible system, 1 mM IPTG induction. From the text:
Construction and characterization genetic parts for Rhizobia. Genetic part libraries were built on a pBBR1-ori plasmid pMR-1 using Gibson assembly (New England Biolabs, Cat # E2611). The fluorescence proteins, GFPmut3b and mRFP1 were used as reporters. The Anderson promoter library (Anderson, J. et al. BglBricks: A flexible standard for biological part assembly. 4, 1 (2010)) on the BioBricks Registry were utilized for the characterization of constitutive promoters (FIGS. 11A-11C). To characterize inducible promoters, a regulator protein is constitutively expressed by the PlacIq promoter, and GFP expression is driven by a cognate inducible promoter from the opposite direction, facilitating replacement of the reporter with gene of interest (e.g., T7 RNAP and nifA) and transfer of the controller unit across different plasmid backbones for diverse microbes. The following combinations of cognate regulators and inducible promoters were characterized. IPTG inducible LacI-A1lacO1, DAPG inducible PhlF-PPhl, aTc inducible TetR-PTet, 3OC6HSL inducible LuxR-PLux, salicylic acid inducible NahR-PSal, and cuminic acid inducible CymR-PCym systems were optimized for R. sp. IRBG74 (FIG. 14). Opine inducible OccR-Pocc, and nopaline inducible NocR-Pnoc systems were optimized for A. caulinodans (FIGS. 20A-20F and Tables 9 and 10). For RBS characterization, an IPTG-inducible GFP expression plasmid pMR-40 was used and GFP was expressed to the highest levels with 1 mM IPTG (FIGS. 12A-12B). RBS library for GFP was designed using the RBS library calculator at the highest-resolution mode, and the 3′ end of the 16S rRNA sequences were adjusted according to the species (3′-ACCTCCTTC-5′ for R. sp. IRBG74). Terminators for T7 RNAP were characterized by placing a terminator between two fluorescence reporters expressed from a single T7 wild-type promoter located upstream of the first fluorescence protein GFP. The expression of the two fluorescence proteins is enabled by the controller strain MR18 encoding the IPTG-inducible T7 RNAP system by 1 mM IPTG (FIGS. 13A-13B). The terminator strength (Ts) was determined by normalizing fluorescence levels of a terminator construct by a reference construct pMR-66 where a 40 bp spacer was placed between the reporters. All genetic parts for Rhizobia were characterized as follows.
(In general: In flow cytometry, cells or beads pass a laser one at a time.)
For the compound “RB5r1 (DNA ATTTCACACATCTAGAGCTAATCATCTCGTACTAAAGAGGAGAAATTAACCATG; chemistry not fully specified)”, the “Strength (GFP, au)” value came out at 8242 au.

On to “RB5r2 (DNA ATTTCACACATCTAGAGCTAATCATCGCGTACTCAGGAGGCAAGTAATG; chemistry not fully specified)”, for which the “Strength (GFP, au)” value is given as 7181.5 au.

With “RB5r3 (DNA ATTTCACACATCTAGAATTAAAGAGGAGAAATTAACCATG; chemistry not fully specified)”, the “Strength (GFP, au)” value stood at 6238.5 au.

On to “RB5r4 (DNA TAACAATTTCACACATCTAGAGCTAATCATCTCGTACTAAAGAGGCAAGTAATG; chemistry not fully specified)”, for which the “Strength (GFP, au)” value is 3618 au.

On to “RB5r5 (DNA TAACAATTTCACACATCTAGAGCTAATCATCGCGTACTAAGGAGGCAAGTAATG; chemistry not fully specified)”, for which the “Strength (GFP, au)” value is recorded as 3560 au.

For “RB5r6 (DNA TAACAATTTCACACATCTAGAGCTAATCATCGCGTACTCAAGAGGCAAGTAATG; chemistry not fully specified)”, the “Strength (GFP, au)” value worked out at 2614.5 au.

In the case of “RB5r7 (DNA TAACAATTTCACACATCTAGAGCTAATCTTCGCGTACTAAAGAGGCAAGTAATG; chemistry not fully specified)”, the “Strength (GFP, au)” value is on record as 2418.5 au.

In the case of “RB5r8 (DNA TAACAATTTCACACATCTAGAGCTAATCATCTCGTACTCAGGAGGCAAGTAATG; chemistry not fully specified)”, the “Strength (GFP, au)” value is recorded as 1882.5 au.
